Experiments:
[1] = test system: Acinetobacter calcoaceticus; assay: Expected efficacy of antibiotic agents; conditions: Gram: neg
Acinetobacter lwoffii = assay: Expected efficacy of antibiotic agents; conditions: Gram: neg
Bordetella pertussis = assay: Expected efficacy of antibiotic agents; conditions: Gram: neg
Rickettsiae = conditions: Gram: neg
Enterobacter cloacae = assay: Expected efficacy of antibiotic agents; conditions: Gram: neg
Morganella morganii = assay: Expected efficacy of antibiotic agents; conditions: Gram: neg
Shigella flexneri = assay: Expected efficacy of antibiotic agents; conditions: Gram: neg
Shigella dysenteriae = assay: Expected efficacy of antibiotic agents; conditions: Gram: neg
Pseudomonas aeruginosa = assay: Expected efficacy of antibiotic agents; conditions: Gram: neg
Escherichia coli = assay: Expected efficacy of antibiotic agents; conditions: Gram: neg
Citrobacter diversus = assay: Expected efficacy of antibiotic agents; conditions: Gram: neg
Providencia stuartii = assay: Expected efficacy of antibiotic agents; conditions: Gram: neg
Salmonella typhi = assay: Expected efficacy of antibiotic agents; conditions: Gram: neg
Neisseria gonorrhoeae = assay: Expected efficacy of antibiotic agents; conditions: Gram: neg
Clostridium perfringens = conditions: Gram: anaer
Proteus vulgaris = assay: Expected efficacy of antibiotic agents; conditions: Gram: neg
Neisseria meningitidis = assay: Expected efficacy of antibiotic agents; conditions: Gram: neg
Moraxella catarrhalis = assay: Expected efficacy of antibiotic agents; conditions: Gram: neg
Shigella boydii = assay: Expected efficacy of antibiotic agents; conditions: Gram: neg
Campylobacter jejuni = assay: Expected efficacy of antibiotic agents; conditions: Gram: neg
[2] = test system: Corynebacterium urealyticum; assay: Expected efficacy of antibiotic agents; conditions: Gram: pos
Citrobacter freundii = assay: Expected efficacy of antibiotic agents; conditions: Gram: neg
Francisella tularensis = conditions: Gram: neg
Bartonella bacilliformis = assay: Expected efficacy of antibiotic agents; conditions: Gram: neg
Vibrio cholerae = assay: Expected efficacy of antibiotic agents; conditions: Gram: neg
Serratia marcescens = assay: Expected efficacy of antibiotic agents; conditions: Gram: neg
Acinetobacter baumannii = assay: Expected efficacy of antibiotic agents; conditions: Gram: neg
Corynebacterium jeikeium = assay: Expected efficacy of antibiotic agents; conditions: Gram: pos
Haemophilus ducreyi = assay: Expected efficacy of antibiotic agents; conditions: Gram: neg
Pseudomonas fluorescens = assay: Expected efficacy of antibiotic agents; conditions: Gram: neg
Klebsiella pneumoniae = assay: Expected efficacy of antibiotic agents; conditions: Gram: neg
Brucella species = conditions: Gram: neg
Legionella pneumophila = conditions: Gram: neg
Shigella sonnei = assay: Expected efficacy of antibiotic agents; conditions: Gram: neg
Yersinia pestis = conditions: Gram: neg
Providencia rettgeri = assay: Expected efficacy of antibiotic agents; conditions: Gram: neg
Enterobacter aerogenes = assay: Expected efficacy of antibiotic agents; conditions: Gram: neg
Klebsiella oxytoca = assay: Expected efficacy of antibiotic agents; conditions: Gram: neg
Proteus mirabilis = assay: Expected efficacy of antibiotic agents; conditions: Gram: neg
Haemophilus influenzae = assay: Expected efficacy of antibiotic agents; conditions: Gram: neg
[3] = test system: Klebsiella (Calymmato-bacterium) granulomatis; assay: Expected efficacy of antibiotic agents; conditions: Gram: neg
Enterobacter sakazakii = assay: Expected efficacy of antibiotic agents; conditions: Gram: neg

C/C(=C\C(=O)OCCCCCCCCC(=O)O)C[C@@H]1OC[C@H](C[C@@H]2O[C@H]2[C@@H](C)[C@H](C)O)[C@@H](O)[C@H]1O [Bactroban]
no: Expected efficacy against Acinetobacter calcoaceticus [1] | Expected efficacy against Acinetobacter lwoffii (Acinetobacter lwoffii) | Expected efficacy against Bordetella pertussis (Bordetella pertussis) | Expected efficacy against Rickettsiae (Rickettsiae) | Expected efficacy against Enterobacter cloacae (Enterobacter cloacae) | Expected efficacy against Morganella morganii (Morganella morganii) | Expected efficacy against Shigella flexneri (Shigella flexneri) | Expected efficacy against Shigella dysenteriae (Shigella dysenteriae) | Expected efficacy against Pseudomonas aeruginosa (Pseudomonas aeruginosa) | Expected efficacy against Escherichia coli (Escherichia coli) | Expected efficacy against Citrobacter diversus (Citrobacter diversus) | Expected efficacy against Providencia stuartii (Providencia stuartii) | Expected efficacy against Salmonella typhi (Salmonella typhi) | Expected efficacy against Neisseria gonorrhoeae (Neisseria gonorrhoeae) | Expected efficacy against Clostridium perfringens (Clostridium perfringens) | Expected efficacy against Proteus vulgaris (Proteus vulgaris) | Expected efficacy against Neisseria meningitidis (Neisseria meningitidis) | Expected efficacy against Moraxella catarrhalis (Moraxella catarrhalis) | Expected efficacy against Shigella boydii (Shigella boydii) | Expected efficacy against Campylobacter jejuni (Campylobacter jejuni) | Expected efficacy against Corynebacterium urealyticum [2] | Expected efficacy against Citrobacter freundii (Citrobacter freundii) | Expected efficacy against Francisella tularensis (Francisella tularensis) | Expected efficacy against Bartonella bacilliformis (Bartonella bacilliformis) | Expected efficacy against Vibrio cholerae (Vibrio cholerae) | Expected efficacy against Serratia marcescens (Serratia marcescens) | Expected efficacy against Acinetobacter baumannii (Acinetobacter baumannii) | Expected efficacy against Corynebacterium jeikeium (Corynebacterium jeikeium) | Expected efficacy against Haemophilus ducreyi (Haemophilus ducreyi) | Expected efficacy against Pseudomonas fluorescens (Pseudomonas fluorescens) | Expected efficacy against Klebsiella pneumoniae (Klebsiella pneumoniae) | Expected efficacy against Brucella species (Brucella species) | Expected efficacy against Legionella pneumophila (Legionella pneumophila) | Expected efficacy against Shigella sonnei (Shigella sonnei) | Expected efficacy against Yersinia pestis (Yersinia pestis) | Expected efficacy against Providencia rettgeri (Providencia rettgeri) | Expected efficacy against Enterobacter aerogenes (Enterobacter aerogenes) | Expected efficacy against Klebsiella oxytoca (Klebsiella oxytoca) | Expected efficacy against Proteus mirabilis (Proteus mirabilis) | Expected efficacy against Haemophilus influenzae (Haemophilus influenzae) | Expected efficacy against Klebsiella (Calymmato-bacterium) granulomatis [3] | Expected efficacy against Enterobacter sakazakii (Enterobacter sakazakii)
